Reference: US20180353565A1, “PHARMACEUTICAL FORMULATIONS AND THEIR USE FOR THE TREATMENT OF RETINITIS PIGMENTOSA” (KALEYDE PHARMACEUTICALS AG, priority 2016, published 2018)
Where a SMILES comes first, the peptide text is derived from it. [ ]: non-standard residue; d: D form. αMeF = C[C@](N)(Cc1ccccc1)C(=O)O; Aib = CC(C)(N)C(=O)O

Key:
[1] = system: mice with oxygen-induced retinopathy; settings: cited from earlier work
[2] = Tissue distribution at Tmax after single subcutaneous administration (LC-MS); assay type: in vivo, Sprague-Dawley rats; settings: at Tmax after 16.6 mg/kg s.c., rat
Experimental: (§1) 10 Male Sprague-Dawley rats were used. The rats were divided into two groups of 5 for determination of plasma pharmacokinetics and tissue distribution, by single subcutaneous administration at the dose of 16.6 mg/kg in a volume of 1 mL/kg. Blood samples were taken after 0.25, 0.5, 1, 2, 4, 6, 8 and 24 hours; subsequently, in the second group of rats, tissue samples were taken at Tmax. The kinetic equation, Cmax, Tmax, plasma half-life and AUC were determined. The concentrations were measured by LC-MS.
As will be seen, the kidney is the organ with the highest values compared with the other tissues. However, in the eyes, which represent the target tissue, the peptide is present with a tissue plasma ratio of about 5.

[3] = Plasma pharmacokinetics after single subcutaneous administration (LC-MS); assay type: in vivo, Sprague-Dawley rats; settings: Dose 16.6 mg/kg s.c.
Experimental: as §1

[4] = system: RCS/Kyo rat (Royal College of Surgeons rat); assay: Efficacy in RCS/KYO rats by intravitreal or subcutaneous administration (retinal and ONL thickness under the microscope); assay type: in vivo; settings: for Retinal thickness % of control / Thickness of ONL % of control / Thickness of ONL (outer nuclear layer): age 49 days; for Retinal thickness: measured at age 49 days
Description: The RCS/Kyo rat (Royal College of Surgeons rat) represents the most commonly used model in the study of this eye disease. RCS rats present retinal degeneration that makes them the ideal model for the study of this disease. […] The epithelial cells of the retina in these animals are unable to ingest the […] photoreceptor cells, and those photoreceptors therefore die.
45 male and female RCS/Kyo rats, aged 14/21 days, were employed, using the tetrapeptide Ac-Arg-Aib-Arg-α(Me)Phe-NH2, formulated as reported in example 1A, at the concentration of 1.2 mg/mL for intravitreal injection, or 7.6 mg/mL for subcutaneous injection.
The treatment regimen used is set out below:
After euthanasia of the rats at the age of 49 days, the thickness of the retina in the various groups was measured under the microscope:
The thickness of the outer layer of granules (outer nuclear layer, ONL, cell body of cones and rods) was also measured.

[5] = intravitreal injection, OIR mice
[6] = male, Sprague-Dawley, sc, rat plasma
[7] = group S-ivt-sd-t: intravitreal, therapeutic, single dose 4 μg at day 22
[8] = group S-sc-rd-p: subcutaneous, preventive, 1800 μg from day 14, 6 times a week for 5 weeks
[9] = group S-sc-rd-t: subcutaneous, therapeutic, 1800 μg from day 22, 6 times a week for 4 weeks

CC(=O)N[C@@H](CCCNC(=N)N)C(=O)NC(C)(C)C(=O)N[C@@H](CCCNC(=N)N)C(=O)N[C@@](C)(Cc1ccccc1)C(N)=O [Ac-Arg-Aib-Arg-α(Me)Phe-NH2] (Ac-R[Aib]R[αMeF]-NH2)
Effect on inflammatory markers [1, 5]: reducing the anti-inflammatory markers | Effect on retinal neovascularization [1, 5]: reducing retinal neovascularization | Effect on the blood-retinal barrier [1, 5]: repairing dysfunctions of the blood-retinal barrier | Effect on the structure of the retina (words, literature) ([1]; reported in IOVS (2015), 56(4) 2392-2407): does not modify the structure of the retina | Tissue plasma ratio, eyes [2]: about 5 | Kelim ([3]; rat plasma): 0.309 ± 0.029 h⁻¹ | Tmax ([3]; male, Sprague-Dawley, rat, plasma, sc, 16.6 mg/kg): ~2 h | AUC(0-inf) [3, 6]: 39300 ± 4010 ng·h/mL | AUC(0-t) [3, 6]: 39300 ± 3990 ng·h/mL | Cmax [3, 6]: 5910 ± 1180 ng/mL | half-life [3, 6]: 2.26 ± 0.226 h | Effect on retinal structure ([4]; RCS/KYO rats): restore nearly all the strongly deteriorated retinal structure | Change of retinal thickness ([4]; all the treated groups, preventive treatment to a lesser extent): considerable increase in retinal thickness | Retinal thickness % of control [4, 7]: 110 % of control | Thickness of ONL % of control [4, 7]: 134 % of control | Thickness of ONL (outer nuclear layer) [4, 7]: 12.09 μm | Retinal thickness ([4]; group S-ivt-sd-t: intravitreal, therapeutic, single dose 4 μg at day 22 after birth): 132.08 μm | Retinal thickness % of control [4, 8]: 130 % of control | Thickness of ONL % of control [4, 8]: 196 % of control | Thickness of ONL (outer nuclear layer) [4, 8]: 17.64 μm | Retinal thickness [4, 8]: 155.25 μm | Retinal thickness % of control [4, 9]: 153 % of control | Thickness of ONL % of control [4, 9]: 196 % of control | Thickness of ONL (outer nuclear layer) [4, 9]: 17.62 μm | Retinal thickness [4, 9]: 182.67 μm | Change of ONL thickness ([4]; repeated subcutaneous doses): double the thickness of the layer | Increase of the photoreceptor layer ([4]; single dose of 4 μg per eye): 34%
